Reference: ChEMBL document CHEMBL4823312, “Virtual screening and biological evaluation of PPARγ antagonists as potential anti-prostate cancer agents” (Bioorg Med Chem, 2021)

target: T1, Peroxisome proliferator-activated receptor gamma (Homo sapiens, UniProt P37231); experiment: Antagonist activity at PPARgamma (unknown origin) expressed in human LNCaP cells assessed as suppression of pioglitazone-induced PPAR response element driven firefly luciferase activity measured after 24 hrs by dual luciferase reporter assay; type: cell-based
T1 sequence (P37231 whole entry): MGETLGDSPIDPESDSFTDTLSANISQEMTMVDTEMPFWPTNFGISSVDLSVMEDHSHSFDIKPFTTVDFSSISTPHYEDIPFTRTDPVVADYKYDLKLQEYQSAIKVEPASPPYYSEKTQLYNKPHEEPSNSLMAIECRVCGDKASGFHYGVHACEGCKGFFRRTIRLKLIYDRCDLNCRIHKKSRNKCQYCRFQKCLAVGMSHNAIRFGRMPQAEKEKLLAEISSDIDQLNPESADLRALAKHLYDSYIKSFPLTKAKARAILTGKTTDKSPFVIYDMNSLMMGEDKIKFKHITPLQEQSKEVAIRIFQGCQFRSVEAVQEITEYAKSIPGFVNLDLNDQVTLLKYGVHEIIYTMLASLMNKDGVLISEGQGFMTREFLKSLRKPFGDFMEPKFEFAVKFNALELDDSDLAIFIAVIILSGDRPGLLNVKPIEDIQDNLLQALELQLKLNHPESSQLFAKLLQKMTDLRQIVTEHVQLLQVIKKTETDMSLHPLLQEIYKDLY

Row | SMILES | IC50 [µM]
1 | COc1cc(OC)c2c(=O)cc(-c3cccnc3)oc2c1 | 1.1
2 | O=C(CCCOc1ccc(Cl)cc1Cl)N[C@@H](Cc1c[nH]c2ccccc12)C(=O)O | 2.4
3 | O=S(=O)(NCCSSCCNS(=O)(=O)c1cccc2cccnc12)c1cccc2cccnc12 | 1.5
4 | CC(/C=N/Nc1ccc(S(=O)(=O)/N=C/C(C)=C/c2ccccc2)cc1)=C\c1ccccc1 | 2.3
5 | COc1ccc(O)c(/C=N/c2ccccc2NS(=O)(=O)c2ccc(C)cc2)c1 | 2.3
6 | O=C(OCc1cccc2ccc3cccc(COC(=O)c4ccccc4)c3c12)c1ccccc1 | 5.4
7 | O=C(CCCC(=O)N/N=C/c1cccc2ccccc12)N/N=C/c1ccc2ccccc2c1 | 2.1
8 | CCN(CC)c1ccc(CN(CC(=O)c2ccc(Cl)c(Cl)c2)Cc2ccccc2)cc1 | 4.5
9 | COc1c(OC)c(O)c2c(=O)cc(-c3ccc(O)cc3)oc2c1OC [XANTHOMICROL] | 5.4

Results, then the molecule that gave them:

Row | IC50 [µM] | SMILES
10 | 1.6 | O=C(CNC(=O)Nc1ccc(NC(=O)NCC(=O)Nc2ccc(C3=NCCN3)cc2)cc1)Nc1ccc(C2=NCCN2)cc1
11 | 3.5 | O=C(O)c1ccccc1-c1ccccc1C(=O)Nc1ccc2c(c1)-c1ccccc1C2
12 | 2.8 | O=C1C=C(Nc2ccccc2C(=O)CC(=O)C(=O)Nc2ccc(Cl)c(Cl)c2)c2ccccc2C1=O
13 | 1.7 | O=C(Nc1ccccc1C(=O)N/N=C/c1c(O)ccc2ccccc12)c1ccccc1Cl
14 | 275 | COc1ccc(NC(=O)CC[C@H](NS(=O)(=O)c2ccc(C)cc2)C(=O)O)cc1
15 | 2.6 | CC(=O)c1cc(C(C)=O)c(CC(=O)C(=O)Nc2cccc(C)c2C)cc1CC(=O)C(=O)Nc1cccc(C)c1C
